Measurements from BindingDB's records for doi:10.1021/jm960837y (Boehringer Ingelheim Pharmaceuticals, 1997).

Tests used:
[1] = target: T1, Gag-Pol polyprotein [600-1027,P835L]/[600-1155,P835L] (Human immunodeficiency virus 1, UniProt P03366, P835L); test: HIV-1 RT Assay
T1 construct: 600-1027; 600-1155
Source text: (§1) The IC50 of reverse transcriptase is the concentration that inhibits 50% of recombinant HIV-1 RT RNA-directed DNA polymerase activity in vitro.

[2] = target: T2, Gag-Pol polyprotein [600-1027,Y787L]/[600-1155,Y787L] (Human immunodeficiency virus 1, UniProt P03366, Y787L); test: HIV-1 RT Assay; conditions: pH 7.8; 22 °C
T2 construct: 600-1027; 600-1155
Source text: as §1

## CCN1c2ncccc2C(=O)N(C)c2ccc(-c3c[nH]c4cnccc34)nc21 [2-ethyl-9-methyl-5-{1H-pyrrolo[2,3-c]pyridin-3-yl}-2,4,9,15-tetraazatricyclo[9.4.0.0^{3,8}]pentadeca-1(11),3(8),4,6,12,14-hexaen-10-one]
[1]
  IC50: < 1 nM

## CCN1c2ncccc2C(=O)N(C)c2ccc(-c3cc[nH]c3)nc21 [2-ethyl-9-methyl-5-(1H-pyrrol-3-yl)-2,4,9,15-tetraazatricyclo[9.4.0.0^{3,8}]pentadeca-1(11),3(8),4,6,12,14-hexaen-10-one]
[1]
  IC50: 130 nM
[2]
  IC50: 100 nM
